Results on 16 compounds are retold here after US9556135B2, “Amino-dihydrothiazine and amino-dioxido dihydrothiazine compounds as beta-secretase antagonists and methods of use” (Amgen Inc., priority 2012, dated 2017).

Like-named read-outs stand apart in the source and are kept apart here.

Assay [1] has as its system Aβ40 in conditioned medium of cells stably expressing Amyloid Precursor Protein (APP). The assay is described as follows: In vitro BACE cell-based assay (HEK cell assay), Aβ40 sandwich ELISA. As for the experimental part:
In Vitro BACE Cell-Based Assay
The cell-based assay measures inhibition or reduction of Aβ40 in conditioned medium of test compound treated cells expressing amyloid precursor protein.
Cells stably expressing Amyloid Precursor Protein (APP) were plated at a density of 40K cells/well in 96 well plates (Costar). The cells were cultivated for 24 hours at 37° C. and 5% CO2 in DMEM supplemented with 10% FBS. The test compounds were then added to cells in 10-point dose response concentrations with the starting concentration being either 100 μM or 10 μM. The compounds were diluted from stock solutions in DMSO and the final DMSO concentration of the test compounds on cells was 0.1%. After 24 h of incubation with the test compounds the supernatant conditioned media was collected and the Aβ 40 levels were determined using a sandwich ELISA. The IC50 of the compound was calculated from the percent of control or percent inhibition of Aβ 40 as a function of the concentration of the test compound.
The sandwich ELISA to detect Aβ 40 was performed in 96 well microtiter plates, which were pre-treated with goat anti-rabbit IgG (Pierce). The capture and detecting antibody pair that were used to detect Aβ 40 from cell supernatants were affinity purified pAb40 (Biosource) and biotinylated 6E10 (Signet Labs Inc.), respectively. The optimal concentration for the pAb40 antibody was 3 μg/ml in Superblock/TBS (Pierce) that was supplemented with 0.05% Tween 20 (Sigma).
Cellular supernatants were incubated with the capture antibody for 3 h at 4° C., followed by 3 wash steps in TBS-tween (0.05%). The detecting antibody incubation was for 2 h at 4° C., again followed by the wash steps as described previously. The final readout of the ELISA is Time-Resolved Fluorescence (counts per minute) using Delfia reagents Streptavidin-Europium and Enhancement solutions (Perkin Elmer) and the Victor 2 multilabel counter (Perkin Elmer).
In general terms: In an ELISA, binding on a coated surface is turned into a signal by an enzyme label.

Assay [2] has as its target Beta Secretase enzyme (BACE1) (Homo sapiens (Human), UniProt P56817). Briefly: In vitro enzymatic BACE FRET assay. The class given is biochemical. As to the method:
In Vitro Enzymatic BACE FRET (Fluorescence Resonance Energy Transfer) Assay (Enzyme Assay Data in the Example Tables I and II)
The assay buffer used in this screen is 0.05 M acetate, pH 4.2, 10% DMSO final, 100 uM genapol (which is a nonionic detergent, below its Critical Micelle Concentration). […] This assay is effectively started by the addition of FRET substrate (50 nM) and the combination is incubated for one hour. The FRET assay is terminated with by addition of Tris buffer, which raises the pH to neutrality, and the fluorescence is determined. The FRET substrate is a peptide with commercially available fluorophore and quencher, on opposite sides of the BACE cleavage site. Proteolytic cleavage of the FRET substrate releases quenching of fluorescence (excitation […] and […]).

The target in another assay is Cathepsin D (Cat D) (Homo sapiens (Human), UniProt P07339). The assay is described as follows: In vitro enzymatic Cathepsin D (Cat D) FRET assay. The class given is biochemical. Particulars: read-out: CatD IC50. As for the experimental part:
In Vitro Enzymatic Cathepsin D (Cat D) FRET (Fluorescence Resonance Energy Transfer) Assay Recombinant Cat D was expressed in CHO cells. […] The Cat D enzyme (9 nM) is pre-incubated for one hour with inhibitors, typically in about 1 uL of DMSO according to a serial dilution, is added thereto. […] The FRET assay is terminated with by addition of Tris buffer, which raises the pH to neutrality, and the fluorescence is determined. The FRET substrate is a peptide with commercially available fluorophore and quencher, on opposite sides of the BACE cleavage site. The Cat D substrate peptide sequence is based on sequence #1 of Table 1 from Gulnik et al. […] Where available, the in-vitro Cat D FRET assay data for each of the Examples, conducted by the first procedure, is provided.

The next assay concerns Abeta 40. Briefly: In vivo inhibition of beta-secretase: Abeta 40 reduction in CSF and brain of the rat. The settings on record: 10 mpk (unless otherwise noted), after 4 hrs.
Setting [3] is: Homo sapiens, HEK293, average IC50, HEK cell assay.

Chain of Beta Secretase enzyme (BACE1) (P56817 46-501): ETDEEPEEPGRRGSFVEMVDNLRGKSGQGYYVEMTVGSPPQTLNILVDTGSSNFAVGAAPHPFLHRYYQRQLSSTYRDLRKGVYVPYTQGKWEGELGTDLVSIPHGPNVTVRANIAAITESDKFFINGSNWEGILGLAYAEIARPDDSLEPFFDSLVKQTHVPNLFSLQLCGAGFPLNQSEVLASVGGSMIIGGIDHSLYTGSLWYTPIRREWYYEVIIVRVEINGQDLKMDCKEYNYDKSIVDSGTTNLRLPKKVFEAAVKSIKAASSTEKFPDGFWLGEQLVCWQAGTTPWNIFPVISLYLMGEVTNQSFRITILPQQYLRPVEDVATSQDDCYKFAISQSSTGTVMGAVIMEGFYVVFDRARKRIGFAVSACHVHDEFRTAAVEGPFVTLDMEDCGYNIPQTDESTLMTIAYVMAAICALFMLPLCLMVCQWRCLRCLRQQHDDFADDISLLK
Chain of Cathepsin D (Cat D) (P07339 65-412, species assumed): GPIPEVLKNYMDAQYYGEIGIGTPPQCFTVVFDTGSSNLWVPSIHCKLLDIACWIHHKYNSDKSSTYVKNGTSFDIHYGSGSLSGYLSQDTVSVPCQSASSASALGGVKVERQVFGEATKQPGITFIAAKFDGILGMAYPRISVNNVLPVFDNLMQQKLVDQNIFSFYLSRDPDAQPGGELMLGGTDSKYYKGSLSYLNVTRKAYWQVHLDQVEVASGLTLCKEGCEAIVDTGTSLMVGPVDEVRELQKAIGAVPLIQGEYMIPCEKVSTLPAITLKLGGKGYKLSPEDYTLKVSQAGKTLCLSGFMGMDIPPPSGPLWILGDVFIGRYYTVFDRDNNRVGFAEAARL

In the case of “N-(3-((4aR,7aS)-3-amino-2,2-dimethyl-1,1-dioxido-7,7a-dihydro-2H-furo[3,4-b][1,4]thiazin-4a(5H)-yl)-4-fluorophenyl)-3-chloro-1,7-naphthyridin-8-amine,N-(3-((4aS,7aR)-3-amino-2,2-dimethyl-1,1-dioxido-7,7a-dihydro-2H-furo[3,4-b][1,4]thiazin-4a(5H)-yl)-4-fluorophenyl)-3-chloro-1,7-naphthyridin-8-amine [Example 429]”, the half-inhibitory concentration (IC50) (as a rule, the concentration that inhibits the measured activity by half) amounted to 157 nM in assay [1] (average IC50, cell assay); 4.6 nM in assay [2] (average IC50, enzyme assay); 131000 nM on Cathepsin D (Cat D).

Take `Cc1c(C(=O)Nc2ccc(F)c([C@@]3(C)N=C(N)C4(CC4)S(=O)(=O)[C@H]3F)c2)nc2ccc(Cl)cn12` [Example 462, N-(3-((5R,6R)-8-amino-5-fluoro-6-methyl-4,4-dioxido-4-thia-7-azaspiro[2.5]oct-7-en-6-yl)-4-fluorophenyl)-6-chloro-3-methylimidazo[1,2-a]pyridine-2-carboxamide]: the IC50 in assay [1] (setting [3]) is 10.4 nM; in assay [2] (average IC50, enzyme assay), 3.2 nM; at Cathepsin D (Cat D) (Cathepsin D FRET assay), 60100 nM.

As to “N-(3-((4aR,7aR)-3-amino-2,2-dimethyl-1,1-dioxido-7,7a-dihydro-2H-furo[3,4-b][1,4]thiazin-4a(5H)-yl)-4-fluorophenyl)-5-(difluoromethoxy)-3-methyl-2-pyridinecarboxamide,N-(3-((4aS,7aS)-3-amino-2,2-dimethyl-1,1-dioxido-7,7a-dihydro-2H-furo[3,4-b][1,4]thiazin-4a(5H)-yl)-4-fluorophenyl)-5-(difluoromethoxy)-3-methyl-2-pyridinecarboxamide [Example 413]”, the figures for the IC50 (in assay [1] (average IC50); in assay [2] (average IC50); on Cathepsin D (Cat D)) were 10.3 nM, 2.65 nM and 111000 nM, respectively.

Take `COc1cnc(C(=O)Nc2ccc(F)c([C@@]3(C(F)(F)F)CS(=O)(=O)C(C)(C)C(N)=N3)c2)cn1` [Example 34, N-(3-((3R)-5-amino-6,6-dimethyl-1,1-dioxido-3-(trifluoromethyl)-3,6-dihydro-2H-1,4-thiazin-3-yl)-4-fluorophenyl)-5-methoxy-2-pyrazinecarboxamide]: the IC50 in assay [1] (Homo sapiens, HEK293, Aβ40 in conditioned medium after 24 h incubation) is above 10000 nM; in assay [2], 883 nM; at Cathepsin D (Cat D) it was above 400000 nM.

In the case of `COc1cnc(C(=O)Nc2ccc(F)c([C@]3(C)CS(=O)(=O)[C@]4(C[C@H](OC)C4)C(N)=N3)c2)c(C)c1` [Example 461, N-(3-((2R,4r,7R)-9-amino-2-methoxy-7-methyl-5,5-dioxido-5-thia-8-azaspiro[3.5]non-8-en-7-yl)-4-fluorophenyl)-5-methoxy-3-methylpicolinamide], the concentration for half-maximal inhibition (IC50) in assay [1] (setting [3]) was 28 nM; in assay [2] (average IC50, enzyme assay), 15.7 nM; on Cathepsin D (Cat D) (Cathepsin D FRET assay) it was 399000 nM.

For `COc1cnc(C(=O)Nc2ccc(F)c([C@]34COC[C@H]3S(=O)(=O)C(C)(C)C(N)=N4)c2)c(C)c1` [Example 430, N-(3-((4aS,7aS)-3-amino-2,2-dimethyl-1,1-dioxido-7,7a-dihydro-2H-furo[3,4-13][1,4]thiazin-4a(5H)-yl)-4-fluorophenyl)-5-methoxy-3-methyl-2-pyridinecarboxamide], the IC50 in assay [1] (average IC50, cell assay) is 11.7 nM; in assay [2] (average IC50, enzyme assay), 4.1 nM. Moreover, the “% reduction of rat CSF levels at 10 pmk” value in the assay with Abeta 40 (rat CSF) came to 31%. Further, the “% reduction of rat brain levels at 10 mpk” value with Abeta 40 (rat brain) came to 1%.

On to `COc1cnc(C(=O)Nc2ccc(F)c([C@]3(C)CS(=O)(=O)[C@]4(C[C@@H](F)C4)C(N)=N3)c2)c(C)c1` [Example 463, N-(3-((2S,4s,7R)-9-amino-2-fluoro-7-methyl-5,5-dioxido-5-thia-8-azaspiro[3.5]non-8-en-7-yl)-4-fluorophenyl)-5-methoxy-3-methylpicolinamide], for which the IC50 in assay [1] (setting [3]) was 13.2 nM; in assay [2] (average IC50, enzyme assay), 4.6 nM; on Cathepsin D (Cat D) (Cathepsin D FRET assay), 76500 nM.

Regarding `CO[C@H]1C[C@]2(C1)C(N)=N[C@](C)(c1cc(NC(=O)c3ncc(Cl)cc3C)ccc1F)CS2(=O)=O` [Example 460, N-(3-((2R,4r,7R)-9-amino-2-methoxy-7-methyl-5,5-dioxido-5-thia-8-azaspiro[3.5]non-8-en-7-yl)-4-fluorophenyl)-5-chloro-3-methylpicolinamide], the IC50 in assay [1] (setting [3]) stood at 34.9 nM; in assay [2] (average IC50, enzyme assay) it was 4 nM; at Cathepsin D (Cat D) (Cathepsin D FRET assay) it was 466000 nM.

On to `COc1cnc(C(=O)Nc2cc([C@]3(C)CS(=O)(=O)C(C)(C)C(N)=N3)c(F)cn2)cn1` [Example 143, (R)—N-(4-(5-amino-3,6,6-trimethyl-1,1-dioxido-3,6-dihydro-2H-1,4-thiazin-3-yl)-5-fluoropyridin-2-yl)-5-methoxypyrazine-2-carboxamide], for which the IC50 in assay [1] (Homo sapiens, HEK293, average IC50, cell assay (Table II)) amounted to 462 nM; in assay [2] (average IC50, enzyme assay (Table II)), 115 nM; at Cathepsin D (Cat D) (Table II), 221000 nM.

In the case of “N-(3-((7R)-9-amino-7-(fluoromethyl)-5,5-dioxido-5-thia-8-azaspiro[3.5]non-8-en-7-yl)-4-fluorophenyl)-3-chloro-1,7-naphthyridin-8-amine,N-(3-((7S)-9-amino-7-(fluoromethyl)-5,5-dioxido-5-thia-8-azaspiro[3.5]non-8-en-7-yl)-4-fluorophenyl)-3-chloro-1,7-naphthyridin-8-amine [Example 243]”, the IC50 stood at 77.9 nM in assay [1] (average IC50), 1.31 nM in assay [2] (average IC50) and 363000 nM on Cathepsin D (Cat D).

On to `Cc1c(C(=O)Nc2ccc(F)c([C@]3(C)CS(=O)(=O)[C@]4(C[C@@H](F)C4)C(N)=N3)c2)nc2ccc(Cl)cn12` [Example 464, N-(3-((2 S,4s,7R)-9-amino-2-fluoro-7-methyl-5,5-dioxido-5-thia-8-azaspiro[3.5]non-8-en-7-yl)-4-fluorophenyl)-6-chloro-3-methylimidazo[1,2-a]pyridine-2-carboxamide], for which the IC50 amounted to 6 nM in assay [1] (setting [3]); 4 nM in assay [2] (average IC50, enzyme assay); 67400 nM at Cathepsin D (Cat D) (Cathepsin D FRET assay).

Take `CC1(C)C(N)=N[C@](C)(c2cc(Nc3ccc4c(c3)OC(F)(F)O4)cnc2F)CS1(=O)=O` [Example 414, (5R)-5-(5-((2,2-difluoro-1,3-benzodioxo1-5-yl)amino)-2-fluoro-3-pyridinyl)-2,2,5-trimethyl-5,6-dihydro-2H-1,4-thiazin-3-amine 1,1-dioxide]: the midpoint of inhibition in assay [1] (average IC50), the IC50, lay at 2530 nM.

In assay [1] (average IC50), `Cc1ccc(Oc2ccc(F)c([C@]3(C)CS(=O)(=O)C(C)(C)C(N)=N3)c2)nc1` [Example 265, (5R)-5-(2-fluoro-5-((5-methyl-2-pyridinyl)oxy)phenyl)-2,2,5-3-amine 1,1-dioxide trimethyl-5,6-dihydro-2H-1,4-thiazin-3-amine 1,1-dioxide] returned an IC50 of 804 nM.

`CC1(C)C(N)=N[C@](C)(c2cc(Nc3ncnc4cc(C#N)cnc34)cnc2F)CS1(=O)=O` [Example 384] came in with an IC50 in assay [1] (average IC50) of 23.9 nM.

In assay [1] (average IC50, cell assay (Table II)), `CC1(C)C(N)=N[C@](C)(c2cc(NC(=O)c3cc4ccccc4cn3)ccc2F)CS1(=O)=O` [Example 343] came in with a half-inhibitory concentration (IC50) of 10.7 nM.

With `CC1(C)C(N)=N[C@](CF)(c2cc(Nc3nccc4cc(Cl)cnc34)ccc2F)CS1(=O)=O` [Example 448, N-(3-((3S)-5-amino-3-(fluoromethyl)-6,6-dimethyl-1,1-dioxido-3,6-dihydro-2H-1,4-thiazn-3-yl)-4-fluorophenyl)-3-chloro-1,7-naphthyridin-8-amine], in assay [1] (average IC50, cell assay), the IC50 came to 28.5 nM.
